Assay results from US20090137411A1, “Methods and biochips for detecting small molecule compounds” (priority 2004, published 2009).

Tested on: anti-drug mouse monoclonal antibodies
Assay: Biochip competitive immunoassay for prohibited substances in urine
Type: binding
Settings: competitive immunoassay on chip

Molecule | Cutoff value (the 50% inhibitory concentration) [µg/L]
CC(N)Cc1ccccc1 (stereo not shown) [Amphetamine, amphetamine] | 5.2
C[C@H]1O[C@@H](O[C@H]2[C@@H](O)C[C@H](O[C@H]3[C@@H](O)C[C@H](O[C@H]4CC[C@@]5(C)[C@H](CC[C@@H]6[C@@H]5C[C@@H](O)[C@]5(C)[C@@H](C7=CC(=O)OC7)CC[C@]65O)C4)O[C@@H]3C)O[C@@H]2C)C[C@H](O)[C@@H]1O [Digoxin, digoxin] | 2.8
CN[C@@H](C)Cc1ccccc1 [Methamphetamine] | 4.0
C[C@]12CC[C@H]3[C@@H](CCC4=CC(=O)CC[C@@]43C)[C@@H]1CC[C@@H]2O [Testosterone] | 0.6
gentamicin | 2.5

Tested on: anti-morphine antibodies
Assay: Qualitative screening of athlete urines on chip (morphine)
Type: binding, mouse
Settings: athlete urine samples containing the substance

Molecule | Cross-reactivity with the anti-morphine antibodies
COc1ccc2c3c1O[C@H]1[C@@H](O)CC[C@H]4[C@@H](C2)N(C)CC[C@@]341 [dihydrocodeine] | Cross-reactivity with the anti-morphine antibodies
CCOC(=O)C1(c2ccccc2)CCN(C)CC1 [pethidine] | Cross-reactivity with the anti-morphine antibodies
